Test [1] deals with E. coli ATCC 25922 (AECO001). Nature of the test: MIC assay, CLSI broth microdilution. The settings on record: Escherichia coli; ATCC25922; Mueller Hinton Broth, 35C, 20 hours. Type of test: cell-based. The method, then:
(§1) Minimum inhibitory concentrations (MIC) were determined by reference Clinical and Laboratory Standards Institute (CLSI) broth microdilution methods per M7-A7 [2006]. Quality control ranges utilizing E. coli ATCC 25922, P. aeruginosa ATCC 27853 and S. aureus ATCC 29213, and interpretive criteria for comparator agents were as published in CLSI M100-S17 [2007]. Briefly, serial two-fold dilutions of the test compounds were prepared at 2× concentration in Mueller Hinton Broth. The compound dilutions were mixed in 96-well assay plates in a 1:1 ratio with bacterial inoculum. The inoculum was prepared by suspension of a colony from an agar plate that was prepared the previous day. Bacteria were suspended in sterile saline and added to each assay plate to obtain a final concentration of 5×10^5 CFU/mL. The plates were incubated at 35C for 20 hours in ambient air.
(In general: Broth dilution looks for growth in wells or tubes with falling amounts of substance.)

The test system of test [2] is P. aeruginosa ATCC 27853 (APAE001). Nature of the test: MIC assay, CLSI broth microdilution. The format is cell-based. To be noted: Pseudomonas aeruginosa; ATCC27853; Mueller Hinton Broth, 35C, 20 hours. The protocol: as §1

The structures appear in SMILES notation.

As for `NCC[C@H](O)C(=O)N[C@@H]1C[C@H](N)[C@@H](O[C@H]2O[C@H](CNCCO)CC[C@H]2N)[C@H](O[C@@H]2O[C@H](CO)[C@@H](O[C@H]3O[C@@H](CN)[C@@H](O)[C@H](O)[C@H]3N)[C@H]2O)[C@H]1O` [1/20], the MIC in test [1] and in test [2] was ≤ 1 µg/mL each time.

By MIC is commonly meant the smallest concentration in the dilution series that meets the test's criterion for growth inhibition. Higher therefore signals weaker potency.
